One test has as its system MRSA strains. In words: Time kill assay, PlySs2 and antibiotic alone or in combination. It counts as cell-based, Staphylococcus aureus. The conditions noted are these: ½ MIC of PlySs2 or ¼ MIC of vancomycin alone.
The test system of a further test is S. aureus cell envelope. The test is described as follows: BODIPY-labeled antibiotic cell envelope binding time course. It counts as cell-based. From the text:
As a complement to the synergy studies, daptomycin and vancomycin cell envelope-binding was examined using BODIPY-fluorescein-labeled antibiotics in the presence and absence of sub-MIC levels of CF-301.

Test [1] has as its system MRSA strain MW2 (also strains 738, 832). It counts as in vivo, BALB/c mice. The following applies: FIG. 27E; 10^9 CFU, dosing at 2 hours; vancomycin 110 mg/kg twice daily, PlySs2 5.25 mg/kg.
In test [2] the test system is MRSA Staphylococcus aureus strain (MW2). In words: microbe, parasite or virus in culture. It counts as cell-based.
Test [3] concerns 20 different MSSA and 42 MRSA strains. In words: Time-kill assay, single agents at 1×MIC. The class given is cell-based, Staphylococcus aureus. The conditions noted are these: 1×MIC; for comparative kill: up to 6 hours. The method, then:
In order to more fully evaluate PlySs2's applicability to clinical Staphylococcal infections, time kill studies were undertaken against numerous Staphylococcus aureus strains, including methicillin resistant and methicillin sensitive strains. Time kill assays were performed according to CLSI methodology (CLSI document M07-A9 column 32 No. 2) on 42 methicillin resistant S. aureus (MRSA) strains and 20 methicillin sensitive S. aureus (MSSA) strains. Cultures of each strain (5.5×10^5-1×10^6 starting inoculum) were treated with PlySs2 lysin and with antibiotics daptomycin, oxacillin or vancomycin for comparison for 6 hours with aeration. MRSA and MSSA strains were treated with PlySs2, daptomycin and vancomycin. MSSA strains were also treated with oxacillin. 1×MIC concentrations of the different antibiotics were utilized, based on published and established antibiotic MIC values. PlySs2 lysin treatment was at approximately 1×MIC as previously determined (see TABLE 2 above). Culture aliquots were removed hourly up to 6 hours (time points taken at 15 and 30 min, 1 hr, 2 hr, 3 hr, 4 hr, 5 hr, and 6 hr) and added to a PBS/charcoal solution (to inactivate each drug), which was then serially diluted and plated for bacterial viability. The resulting log CFU/mL was plotted for each culture. Growth controls were included for each strain and represent bacterial growth in the absence of any antibacterial agent. Exemplary log kill curves for selected MRSA strains are depicted in FIG. 1. Exemplary log kill curves for selected MSSA strains are depicted in FIG. 2.
Rapid-kill kinetics are desirable in the clinical setting to treat patients with fulminant bacterial infections.

In another test the test system is MRSA S. aureus strains. The test is described as follows: Dual agent MIC assay (PlySs2 and daptomycin). The class given is cell-based, Staphylococcus aureus.
In test [4] the test system is MRSA strain MW2 and MSSA strain ATCC 29213. It counts as cell-based, Staphylococcus aureus.
A further test concerns MRSA strain 269 (MW2). The test is described as follows: Combination MIC in 15% surfactant (Survanta). It counts as cell-based, Staphylococcus aureus.

Values after ≈ are worked out from the molar mass of the structure shown. Where two headings read alike, the source gives them in different places.

Consider `CN[C@H](CC(C)C)C(=O)N[C@H]1C(=O)N[C@@H](CC(N)=O)C(=O)N[C@H]2C(=O)N[C@H]3C(=O)N[C@H](C(=O)N[C@H](C(=O)O)c4cc(O)cc(O)c4-c4cc3ccc4O)[C@H](O)c3ccc(c(Cl)c3)Oc3cc2cc(c3O[C@@H]2O[C@H](CO)[C@@H](O)[C@H](O)[C@H]2O[C@H]2C[C@](C)(N)[C@H](O)[C@H](C)O2)Oc2ccc(cc2Cl)[C@H]1O` [Vancomycin, vancomycin], for which the “effect alone at sub-MIC doses up to 6 hours” value in the test with MRSA strains is on record as “ineffective or poorly effective”. In addition, the “time to cell wall-labeling with BODIPY-labeled vancomycin” value in the test with S. aureus cell envelope (in the presence of CF-301 (⅛^th MIC)) was not above 5 min. For the same molecule, in the test with S. aureus cell envelope (without CF-301), the “time to cell wall-labeling with BODIPY-labeled vancomycin” value is 30 min. In test [1], the “24 hour survival rate” value came to 20% and the “72 hour survival rate” value is recorded as 3%. Besides, the “fold increase in vancomycin MIC” value in test [2] (25-day, vancomycin-only) is listed as 16 fold. In addition, the “vancomycin MIC, ending values” in test [2] (25 day serial passage, PlySs2 (8 ug/ml) plus vancomycin (three cultures)) is 2 µg/mL. Besides, the MIC in test [2] (Staphylococcus aureus, MRSA, read-out: vancomycin MIC, starting value, MW2) is 1 µg/mL (≈ 0.69 µM).

As for `Cc1onc(-c2ccccc2)c1C(=O)N[C@@H]1C(=O)N2[C@@H]1SC(C)(C)[C@@H]2C(=O)O` [Oxacillin, oxacillin, reference compound], the “comparative kill” value in test [3] is on record as “least effective”.

As for `CCCCCCCCCC(=O)N[C@@H](Cc1c[nH]c2ccccc12)C(=O)N[C@H](CC(N)=O)C(=O)N[C@@H](CC(=O)O)C(=O)N[C@@H]1C(=O)NCC(=O)N[C@@H](CCCN)C(=O)N[C@@H](CC(=O)O)C(=O)N[C@H](C)C(=O)N[C@@H](CC(=O)O)C(=O)NCC(=O)N[C@H](CO)C(=O)N[C@@H]([C@H](C)CC(=O)O)C(=O)N[C@@H](CC(=O)c2ccccc2N)C(=O)O[C@@H]1C` [Daptomycin, reference compound], the “time to reach bactericidal levels (≧3-log10 reduction in CFUs)” value in test [3] was found to be 6 hours. For the same molecule, in test [3], the “comparative kill” value is on record as “most effective against most strains”. Further, the MIC alone with MRSA S. aureus strains (MRSA strain 269 (MW2), single-agent) amounted to 1 µg/mL (≈ 0.617 µM). Further, the “daptomycin MIC with 0.25×MIC PlySs2” value in the test on MRSA S. aureus strains (dual agent MIC assay, strain not named) worked out at 0.0075 µg/mL. Also, the results for the “time to antibiotic penetration (BODIPY-labeled daptomycin binding)” value in the test on S. aureus cell envelope (in the presence of CF-301 at 1/32nd MIC) and with S. aureus cell envelope (without CF-301) were 15 min and 180 min, respectively. In addition, the “fold inhibition of MIC in the presence of Survanta” value in test [4] (surfactant concentration of 1.25%) was “more than 20 fold”; in test [4] (surfactant up to 15%, vs MIC without surfactant), “up to 256 fold”. Moreover, the “effective combination concentration as fraction of the MIC” value in the test with MRSA strain 269 (MW2) is given as 1/1024. Also, the “effective concentration in PlySs2 plus daptomycin combination MIC” value with MRSA strain 269 (MW2) (24 hours) worked out at 0.25 µg/mL.

For the origin of these results see patent US9889181B2, “Bacteriophage lysin and antibiotic combinations against gram positive bacteria” (priority 2012, dated 2018).
